From patent publication US20030149306A1, “Process for the preparation of polymorph of 4-(aryl)-1,2,3,4-tetrahydro-1-naphthale-namine derivative” (priority 2000, published 2003)
Entries after “also recorded” stand apart in the source; their conditions may differ. Counter-ions that a name gives are not always drawn.

How the values were obtained:
[1] = as compared to Form I; cited from earlier work
[2] = compared among Forms I to V; cited from earlier work
[3] = from a pharmaceutical formulation; cited from earlier work
[4] = solid-state stability of Form V (Infrared spectrum KBr and X-ray diffractogram) under storage, grinding and heating; format: physicochemical
Protocol: For example, it was stable for 3 months at 40° C. and 75% relative humidity or when subjected to grinding in a pestle and mortar or when heated upto 140° C. for 3 hours.
No change in Infrared spectrum (KBr) and X-ray diffractogram was observed after 3 months at 40° C. and 75% relative humidity or when subjected to grinding in a pestle and mortar or when heated upto 140° C. for 3 hours.

## CN[C@H]1CC[C@@H](c2ccc(Cl)c(Cl)c2)c2ccccc21 [Example T1, (1S, 4S) N-methyl-4-(3,4-dichlorophenyl)-1,2,3,4-tetrahydro-1-naphthalenamine]
[1]
  bioavailability: much-improved bioavailability

## CN[C@H]1CC[C@@H](c2ccc(Cl)c(Cl)c2)c2ccccc21 [Form I, hydrochloride salt of (1S,4S) N-methyl-4-(3,4-dichlorophenyl)-1,2,3,4-tetrahydro-1-naphthalenamine]
[2]
  thermodynamic stability among crystalline forms: most thermodynamically stable form; also recorded: most stable crystalline form
[3]
  dissolution rate with respect to the desired bioavailability: dissolves too slowly

## CN[C@H]1CC[C@@H](c2ccc(Cl)c(Cl)c2)c2ccccc21 [Form V, hydrochloride salt of (1S,4S) N-methyl-4-(3,4-dichlorophenyl)-1,2,3,4-tetrahydro-1-naphthalenamine]
[4]; 3 months at 40° C. and 75% relative humidity
  stability (change in Infrared spectrum (KBr) and X-ray diffractogram): stable
[4]; 3 months at 40° C. and 75% relative humidity, listed as Example 1
  stability (change in Infrared spectrum (KBr) and X-ray diffractogram): No change
[4]; heated upto 140° C. for 3 hours
  stability (change in Infrared spectrum (KBr) and X-ray diffractogram): stable
[4]; heated upto 140° C. for 3 hours, listed as Example 1
  stability (change in Infrared spectrum (KBr) and X-ray diffractogram): No change
[4]; subjected to grinding in a pestle and mortar
  stability (change in Infrared spectrum (KBr) and X-ray diffractogram): stable
[4]; subjected to grinding in a pestle and mortar, listed as Example 1
  stability (change in Infrared spectrum (KBr) and X-ray diffractogram): No change
